Measured values reported in US12275731B2, “Azaindole inhibitors of wild-type and mutant forms of LRRK2” (DANA-FARBER CANCER INSTITUTE, INC., priority 2018, dated 2025).

Tests used:
Experiment in all cases: KinomeScan profiling
Type in all cases: binding
CLK2 = CLK2 (Homo sapiens, UniProt P49760); details: CLK2, 1 μM; read-out: % control
Procedure, shortened: (§1)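 Compounds were screened at 1 μM in DMSO across a 468-kinase KinomeScan panel. Binding was expressed as % control, scaled between a positive control (0%) and DMSO (100%) using luminescence signal. A value under 35% counted as active.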

PKAC-beta = molecular target: T1, PKAC-beta (Homo sapiens, UniProt P22694); details: read-out: % control
T1 construct: purchased KinomeScan® (panel service)
Procedure, shortened: as §1

MST4 = MST4 (Homo sapiens, UniProt Q9P289); details: MST4, 1 μM; read-out: % control
Procedure, shortened: as §1

MLK1 = MLK1 (Homo sapiens, UniProt P80192); details: MLK1, 1 μM; read-out: % control
Procedure, shortened: as §1

MST1 = molecular target: T2, MST1 (Homo sapiens, UniProt Q13043); details: MST1, 1 μM; read-out: % control
T2 sequence (Q13043 1-487): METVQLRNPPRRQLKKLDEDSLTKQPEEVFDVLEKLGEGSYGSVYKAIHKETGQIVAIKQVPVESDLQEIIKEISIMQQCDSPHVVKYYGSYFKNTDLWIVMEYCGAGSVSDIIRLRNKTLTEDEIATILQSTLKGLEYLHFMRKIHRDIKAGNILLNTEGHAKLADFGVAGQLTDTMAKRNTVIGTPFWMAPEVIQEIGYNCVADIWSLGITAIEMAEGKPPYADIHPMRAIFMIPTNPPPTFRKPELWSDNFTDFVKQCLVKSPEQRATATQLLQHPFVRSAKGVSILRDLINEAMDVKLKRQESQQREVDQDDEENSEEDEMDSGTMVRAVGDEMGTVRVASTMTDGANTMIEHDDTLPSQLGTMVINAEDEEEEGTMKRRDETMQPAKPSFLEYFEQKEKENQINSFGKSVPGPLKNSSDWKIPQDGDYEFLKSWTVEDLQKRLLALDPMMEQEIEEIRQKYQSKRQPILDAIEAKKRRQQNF
Procedure, shortened: as §1

MET(M1250T) = MET(M1250T) (Homo sapiens, UniProt P08581, M1250T); details: read-out: % control
Sequence of MET(M1250T) (P08581 25-1390 M1250T): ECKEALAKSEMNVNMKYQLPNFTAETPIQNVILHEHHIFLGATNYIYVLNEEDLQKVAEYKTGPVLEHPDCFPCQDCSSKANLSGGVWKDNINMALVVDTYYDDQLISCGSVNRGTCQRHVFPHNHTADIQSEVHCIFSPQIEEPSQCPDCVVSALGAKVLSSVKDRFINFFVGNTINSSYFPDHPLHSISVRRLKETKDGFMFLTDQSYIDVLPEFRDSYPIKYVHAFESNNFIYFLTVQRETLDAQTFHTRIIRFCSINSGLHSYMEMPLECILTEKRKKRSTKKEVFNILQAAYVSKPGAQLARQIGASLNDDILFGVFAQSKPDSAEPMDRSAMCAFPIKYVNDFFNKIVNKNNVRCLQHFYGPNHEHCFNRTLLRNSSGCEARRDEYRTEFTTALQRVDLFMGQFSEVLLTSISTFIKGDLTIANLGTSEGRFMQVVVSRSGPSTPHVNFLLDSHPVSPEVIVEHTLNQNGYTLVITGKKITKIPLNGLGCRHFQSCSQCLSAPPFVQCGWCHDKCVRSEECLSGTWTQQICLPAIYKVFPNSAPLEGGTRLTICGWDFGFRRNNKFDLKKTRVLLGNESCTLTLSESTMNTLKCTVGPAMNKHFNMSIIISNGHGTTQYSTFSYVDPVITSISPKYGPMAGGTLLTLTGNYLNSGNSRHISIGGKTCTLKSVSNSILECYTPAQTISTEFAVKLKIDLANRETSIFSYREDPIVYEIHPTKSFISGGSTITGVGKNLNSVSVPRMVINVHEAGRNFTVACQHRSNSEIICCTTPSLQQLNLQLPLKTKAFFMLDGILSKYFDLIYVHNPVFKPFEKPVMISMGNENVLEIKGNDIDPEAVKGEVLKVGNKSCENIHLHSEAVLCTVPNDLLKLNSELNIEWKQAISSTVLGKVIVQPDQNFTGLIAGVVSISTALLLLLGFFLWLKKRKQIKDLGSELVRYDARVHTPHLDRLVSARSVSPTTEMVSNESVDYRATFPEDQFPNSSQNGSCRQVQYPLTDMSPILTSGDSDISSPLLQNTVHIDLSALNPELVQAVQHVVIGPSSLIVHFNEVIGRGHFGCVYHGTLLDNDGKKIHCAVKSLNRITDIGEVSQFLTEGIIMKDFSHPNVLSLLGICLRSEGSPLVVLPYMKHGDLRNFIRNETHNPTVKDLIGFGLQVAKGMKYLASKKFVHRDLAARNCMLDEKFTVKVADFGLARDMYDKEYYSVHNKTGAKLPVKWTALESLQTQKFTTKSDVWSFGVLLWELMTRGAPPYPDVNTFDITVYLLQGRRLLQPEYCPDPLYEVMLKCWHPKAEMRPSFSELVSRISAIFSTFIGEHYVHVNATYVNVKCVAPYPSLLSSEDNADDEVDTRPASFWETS
Procedure, shortened: as §1

PRKR = PRKR (Homo sapiens, UniProt P19525); details: read-out: % control
Sequence of PRKR (P19525 whole entry): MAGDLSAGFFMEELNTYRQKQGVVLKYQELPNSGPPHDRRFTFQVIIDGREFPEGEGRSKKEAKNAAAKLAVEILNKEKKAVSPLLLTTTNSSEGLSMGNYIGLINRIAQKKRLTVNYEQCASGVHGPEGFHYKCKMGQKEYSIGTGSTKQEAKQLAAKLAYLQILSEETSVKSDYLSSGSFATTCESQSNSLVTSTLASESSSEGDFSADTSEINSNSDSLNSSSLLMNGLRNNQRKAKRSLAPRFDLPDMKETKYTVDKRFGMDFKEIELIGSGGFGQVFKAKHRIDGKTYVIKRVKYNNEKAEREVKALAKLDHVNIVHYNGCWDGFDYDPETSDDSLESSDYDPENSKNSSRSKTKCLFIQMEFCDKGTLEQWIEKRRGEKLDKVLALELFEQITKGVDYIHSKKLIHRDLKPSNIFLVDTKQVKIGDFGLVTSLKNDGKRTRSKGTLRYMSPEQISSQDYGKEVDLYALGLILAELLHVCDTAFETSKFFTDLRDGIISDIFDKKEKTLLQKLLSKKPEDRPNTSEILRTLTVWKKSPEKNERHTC
Procedure, shortened: as §1

GAK = molecular target: T3, GAK (Homo sapiens, UniProt O14976); details: read-out: % control
T3 sequence (O14976 1-1311): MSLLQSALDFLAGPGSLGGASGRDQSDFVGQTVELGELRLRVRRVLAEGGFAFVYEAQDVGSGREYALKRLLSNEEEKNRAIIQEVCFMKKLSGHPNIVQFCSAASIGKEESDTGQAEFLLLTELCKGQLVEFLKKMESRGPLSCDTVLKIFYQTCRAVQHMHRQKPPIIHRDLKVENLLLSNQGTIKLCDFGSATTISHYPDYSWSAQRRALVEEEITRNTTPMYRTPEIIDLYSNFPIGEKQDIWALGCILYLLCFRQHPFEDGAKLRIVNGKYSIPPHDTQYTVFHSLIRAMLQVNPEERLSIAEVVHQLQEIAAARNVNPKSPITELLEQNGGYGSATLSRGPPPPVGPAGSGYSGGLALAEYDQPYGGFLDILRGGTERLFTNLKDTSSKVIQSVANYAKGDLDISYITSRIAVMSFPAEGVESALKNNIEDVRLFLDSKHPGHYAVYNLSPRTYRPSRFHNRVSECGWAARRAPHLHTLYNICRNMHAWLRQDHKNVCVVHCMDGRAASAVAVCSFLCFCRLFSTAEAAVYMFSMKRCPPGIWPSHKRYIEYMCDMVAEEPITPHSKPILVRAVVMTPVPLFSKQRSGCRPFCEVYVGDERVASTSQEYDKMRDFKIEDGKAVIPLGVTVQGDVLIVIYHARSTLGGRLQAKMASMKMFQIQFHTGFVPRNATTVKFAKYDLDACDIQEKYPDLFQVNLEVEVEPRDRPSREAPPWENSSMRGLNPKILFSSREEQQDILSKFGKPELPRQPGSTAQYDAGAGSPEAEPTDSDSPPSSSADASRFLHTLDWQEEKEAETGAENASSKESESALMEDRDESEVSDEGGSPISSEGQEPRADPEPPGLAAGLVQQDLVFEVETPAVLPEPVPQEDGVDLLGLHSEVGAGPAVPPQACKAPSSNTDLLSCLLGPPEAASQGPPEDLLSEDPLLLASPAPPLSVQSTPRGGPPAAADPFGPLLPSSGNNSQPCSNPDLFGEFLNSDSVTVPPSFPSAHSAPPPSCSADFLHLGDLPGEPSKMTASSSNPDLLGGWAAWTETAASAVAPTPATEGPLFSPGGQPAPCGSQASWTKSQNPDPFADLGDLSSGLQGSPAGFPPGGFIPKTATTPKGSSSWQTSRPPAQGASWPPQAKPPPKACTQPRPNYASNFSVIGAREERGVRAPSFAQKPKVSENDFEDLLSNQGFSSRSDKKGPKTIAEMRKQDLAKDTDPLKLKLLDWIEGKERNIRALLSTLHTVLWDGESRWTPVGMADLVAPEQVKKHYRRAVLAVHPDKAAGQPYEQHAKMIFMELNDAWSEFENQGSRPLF
Procedure, shortened: as §1

LYN = LYN (Homo sapiens, UniProt P07948); details: read-out: % control
Sequence of LYN (P07948 whole entry): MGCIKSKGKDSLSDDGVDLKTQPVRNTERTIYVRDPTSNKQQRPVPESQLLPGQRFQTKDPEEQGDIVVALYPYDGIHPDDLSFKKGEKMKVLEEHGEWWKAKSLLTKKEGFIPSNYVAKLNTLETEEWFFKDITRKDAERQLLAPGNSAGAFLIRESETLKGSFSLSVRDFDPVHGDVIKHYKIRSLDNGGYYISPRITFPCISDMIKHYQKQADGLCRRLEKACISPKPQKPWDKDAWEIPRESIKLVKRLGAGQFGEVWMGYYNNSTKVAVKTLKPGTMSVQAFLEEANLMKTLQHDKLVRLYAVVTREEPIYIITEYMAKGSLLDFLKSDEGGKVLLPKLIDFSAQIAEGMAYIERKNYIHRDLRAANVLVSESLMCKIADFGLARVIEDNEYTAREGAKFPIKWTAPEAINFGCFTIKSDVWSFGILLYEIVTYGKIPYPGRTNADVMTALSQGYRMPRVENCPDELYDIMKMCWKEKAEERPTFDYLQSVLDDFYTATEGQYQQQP
Procedure, shortened: as §1

MINK = MINK (Homo sapiens, UniProt Q8N4C8); details: read-out: % control
Sequence of MINK (Q8N4C8 whole entry): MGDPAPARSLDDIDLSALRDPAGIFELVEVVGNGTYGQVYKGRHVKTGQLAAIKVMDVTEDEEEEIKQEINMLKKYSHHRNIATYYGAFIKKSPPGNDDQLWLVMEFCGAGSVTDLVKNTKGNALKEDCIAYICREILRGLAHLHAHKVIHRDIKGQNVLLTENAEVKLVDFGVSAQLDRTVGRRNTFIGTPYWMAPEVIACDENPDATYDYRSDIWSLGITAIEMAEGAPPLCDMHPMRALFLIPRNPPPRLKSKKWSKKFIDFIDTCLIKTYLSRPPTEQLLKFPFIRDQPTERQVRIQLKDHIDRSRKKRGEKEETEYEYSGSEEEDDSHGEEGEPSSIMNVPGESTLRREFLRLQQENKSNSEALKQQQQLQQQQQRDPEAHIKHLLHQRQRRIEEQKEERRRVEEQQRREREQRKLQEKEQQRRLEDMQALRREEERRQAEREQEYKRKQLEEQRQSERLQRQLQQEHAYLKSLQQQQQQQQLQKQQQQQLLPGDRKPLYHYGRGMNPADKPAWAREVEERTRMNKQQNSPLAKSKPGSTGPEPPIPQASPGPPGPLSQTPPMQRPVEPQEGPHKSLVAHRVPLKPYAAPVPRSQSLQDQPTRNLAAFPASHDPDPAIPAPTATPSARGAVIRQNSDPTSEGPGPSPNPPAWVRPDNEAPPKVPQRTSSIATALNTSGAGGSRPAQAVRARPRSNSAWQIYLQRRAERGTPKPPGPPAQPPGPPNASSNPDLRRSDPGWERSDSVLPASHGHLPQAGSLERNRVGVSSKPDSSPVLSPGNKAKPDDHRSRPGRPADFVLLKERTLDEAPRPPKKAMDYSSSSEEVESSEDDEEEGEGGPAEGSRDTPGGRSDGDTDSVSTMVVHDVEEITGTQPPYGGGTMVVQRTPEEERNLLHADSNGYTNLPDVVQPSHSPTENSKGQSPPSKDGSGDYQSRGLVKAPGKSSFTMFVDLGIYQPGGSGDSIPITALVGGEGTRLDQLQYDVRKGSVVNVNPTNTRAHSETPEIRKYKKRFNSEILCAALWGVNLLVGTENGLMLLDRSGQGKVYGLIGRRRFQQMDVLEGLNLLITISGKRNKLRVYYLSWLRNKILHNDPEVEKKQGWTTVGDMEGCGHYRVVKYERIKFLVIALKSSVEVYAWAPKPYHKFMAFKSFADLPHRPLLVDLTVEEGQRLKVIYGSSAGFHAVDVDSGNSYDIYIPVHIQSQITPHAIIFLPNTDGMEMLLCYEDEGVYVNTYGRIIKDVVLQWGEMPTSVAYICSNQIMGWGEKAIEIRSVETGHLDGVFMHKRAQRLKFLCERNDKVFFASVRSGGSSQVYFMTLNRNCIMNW
Procedure, shortened: as §1

TGFBR2 = TGFBR2 (Homo sapiens, UniProt P37173); details: TGFBR2, 1 μM; read-out: % control
Sequence of TGFBR2 (P37173 23-567): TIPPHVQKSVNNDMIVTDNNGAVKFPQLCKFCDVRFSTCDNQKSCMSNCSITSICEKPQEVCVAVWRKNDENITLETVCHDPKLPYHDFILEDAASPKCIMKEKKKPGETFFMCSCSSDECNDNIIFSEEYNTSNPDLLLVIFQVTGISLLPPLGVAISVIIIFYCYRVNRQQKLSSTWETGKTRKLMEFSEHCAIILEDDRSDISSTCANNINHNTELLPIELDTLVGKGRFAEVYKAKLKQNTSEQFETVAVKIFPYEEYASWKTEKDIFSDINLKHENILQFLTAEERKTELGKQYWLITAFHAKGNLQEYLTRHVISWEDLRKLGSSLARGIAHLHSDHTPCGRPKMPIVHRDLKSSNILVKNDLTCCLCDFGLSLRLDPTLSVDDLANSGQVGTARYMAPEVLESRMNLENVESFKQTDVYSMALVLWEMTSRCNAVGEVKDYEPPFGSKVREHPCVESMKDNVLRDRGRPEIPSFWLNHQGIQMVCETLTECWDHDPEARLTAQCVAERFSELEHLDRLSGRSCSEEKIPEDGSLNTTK
Procedure, shortened: as §1

CAMK1B = CAMK1B (Homo sapiens, UniProt Q6P2M8); details: read-out: % control
Procedure, shortened: as §1

Sequence of CLK2 (P49760 whole entry): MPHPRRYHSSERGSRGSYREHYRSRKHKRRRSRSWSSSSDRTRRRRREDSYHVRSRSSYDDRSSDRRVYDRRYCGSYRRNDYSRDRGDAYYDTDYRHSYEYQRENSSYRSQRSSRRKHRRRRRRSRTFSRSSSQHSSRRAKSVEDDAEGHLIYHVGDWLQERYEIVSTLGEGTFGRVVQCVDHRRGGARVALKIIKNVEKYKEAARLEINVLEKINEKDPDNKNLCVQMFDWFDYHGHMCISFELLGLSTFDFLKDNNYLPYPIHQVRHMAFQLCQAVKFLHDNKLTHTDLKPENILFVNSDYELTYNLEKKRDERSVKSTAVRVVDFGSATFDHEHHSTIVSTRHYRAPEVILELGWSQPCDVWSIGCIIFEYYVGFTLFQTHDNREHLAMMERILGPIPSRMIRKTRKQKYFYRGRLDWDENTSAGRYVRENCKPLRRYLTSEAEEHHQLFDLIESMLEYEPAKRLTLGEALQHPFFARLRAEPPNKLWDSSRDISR

Compound | remaining binding at 1 µM (CLK2) | remaining binding at 1 µM (PKAC-beta) | remaining binding at 1 µM (MST4) | remaining binding at 1 µM (MLK1) | remaining binding at 1 µM (MST1) | remaining binding at 1 µM (MET(M1250T)) | remaining binding at 1 µM (PRKR) | remaining binding at 1 µM (GAK) | remaining binding at 1 µM (LYN) | remaining binding at 1 µM (MINK) | remaining binding at 1 µM (TGFBR2) | remaining binding at 1 µM (CAMK1B)
CNc1c(-c2cnn([C@H]3CCN(C(C)=O)C[C@@H]3F)c2)cnc2[nH]cc(Cl)c12 [Compound 77, 1-((3S,4S)-4-(4-(3-chloro-4-(methylamino)-1H-pyrrolo[2,3-b]pyridin-5-yl)-1H-pyrazol-1-yl)-3-fluoropiperidin-1-yl)ethan-1-one] | 57% | 100% | 67% | 91% | 93% | 49% | 68% | 100% | 99% | 17% | 100% | 74%
O=C(c1ccc(-c2cnc3[nH]cc(Cl)c3c2NC2CCCC2)cc1)N1CCC(N2CCOCC2)CC1 [Compound 101, (4-(3-chloro-4-(cyclopentylamino)-1H-pyrrolo[2,3-b]pyridin-5-yl)phenyl)(4-morpholinopiperidin-1-yl)methanone] | 65% | 90% | 100% | 96% | 82% | 23% | 82% | 99% | 100% | 62% | 100% | 69%
CNc1c(-c2ccc(C(=O)N3CCC(N4CCOCC4)CC3)cc2)cnc2[nH]cc(Cl)c12 [Compound 96, (4-(3-chloro-4-(methylamino)-1H-pyrrolo[2,3-b]pyridin-5-yl)phenyl)(4-morpholinopiperidin-1-yl)methanone] | 11% | 100% | 99% | 96% | 81% | 78% | 70% | 99% | 100% | 6% | 100% | 87%
